Data on 24 compounds can be found in patent US10597392B2, “Tetrahydropyridopyrazines as modulators of GPR6” (Takeda Pharmaceutical Corporation Limited, priority 2014, dated 2020).

Bounds are passed on as bounds.

A word on the EC50: it is the midpoint of the concentration-response curve. Read a high EC50 as a less potent agent.

T1 sequence (P46095 whole entry): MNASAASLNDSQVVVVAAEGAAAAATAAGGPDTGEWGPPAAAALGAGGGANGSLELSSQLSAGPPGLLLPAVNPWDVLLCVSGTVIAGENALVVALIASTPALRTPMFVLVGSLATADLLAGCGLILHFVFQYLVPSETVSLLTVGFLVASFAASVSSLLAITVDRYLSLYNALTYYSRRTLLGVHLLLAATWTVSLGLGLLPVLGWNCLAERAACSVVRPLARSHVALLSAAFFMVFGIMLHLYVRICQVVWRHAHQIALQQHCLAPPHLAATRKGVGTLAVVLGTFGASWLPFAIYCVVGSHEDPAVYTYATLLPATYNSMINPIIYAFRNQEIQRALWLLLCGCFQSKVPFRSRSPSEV

This test has as its target T1, GPR6 receptor expressed in CHO-K1 cells (Homo sapiens, UniProt P46095).
T1 construct: expressed in transfected cells
The experiment in a line: Inhibition of cAMP Activity of GPR6 In Vitro Assay. As to conditions: inhibition of constitutive cAMP activity of GPR6 in CHO-K1 cells, 45 min incubation, HTRF cAMP detection. The test is classed as cell-based. The protocol: Inhibition of cAMP Activity of GPR6 In Vitro Assay
This cell based assay measures the ability of compounds to inhibit the constitutive cAMP activity of GPR6 receptor expressed in CHO-K1 cells. CHO cells were stably expressed with GPR6 receptor, whose expression is controlled by a tetracycline inducable element. The cells were cultured in medium containing F12K, 10% FBS, 1% Penn/Strep, 200 ug/mL Hygromycin. GPR6 receptor expression was induced for 20 hrs with 2 µg/ml doxycycline (sigma D9891) in growth media. After addition of doxycycline cells were plated at a density of 450-750 cells per well in 96-well half-volume black tissue culture plates (Costar) and placed in an incubator (37°, 5% CO2) for 20 hours prior to cAMP assays.
Culture media was removed from cells and they were washed with 50 µL/well of Ringer's Buffer (MgCl2 0.047 mg/mL, NaH2PO4 0.18 mg/mL, Na2HPO4 0.1 mg/mL, KCl 0.34 mg/mL, NaHCO3 1.26 mg/mL, D-glucose 1.8 mg/mL, NaCl 7 mg/mL; pH=7.4). Compounds suspended in DMSO were diluted in Ringer's Buffer containing 0.5% fatty acid free BSA plus 300 μM IBMX and incubated on cells for 45 min at 37° and 5% CO2. After incubation cells were incubated for 10 min at room temp with Eu-cAMP tracer solution from a Perkin Elmer Lance HTRF Ultra cAMP assay kit (TRF0263). Then ULight™-anti-cAMP solution from the Lance HTRF kit was added and incubated on a shaker at room temp for 1 hour prior to HTRF detection in a Perkin Elmer Envision plate reader.
IC50 curves were generated with a four-parameter logistic equation using GraphPad Prism 5.03.
A general note: Time-resolved FRET reads energy transfer from a long-lived donor to a nearby acceptor.
Compound `COc1ccc(CN2CCN(c3nc4cnc(C)cc4nc3N[C@H]3CCOC3)CC2)c(F)c1` [Example 25, (S)-3-(4-(2-fluoro-4-methoxybenzyl)piperazin-1-yl)-7-methyl-N-(tetrahydrofuran-3-yl)pyrido[3,4-b]pyrazin-2-amine] had an EC50 of 278 nM.
The same measure for `COc1ccc(CN2CCN(c3nc4cc(C)ncc4nc3NC3CC3)CC2)c(F)c1` [Example 43, N-cyclopropyl-2-(4-(2-fluoro-4-methoxybenzyl)piperazin-1-yl)-7-methylpyrido[3,4-b]pyrazin-3-amine]: more than 1000 nM; for `Cc1cc2nc(NC3COC3)c(N3CCN(Cc4ccc(F)cc4F)CC3)nc2cn1` [Example 15, 3-(4-(2,4-difluorobenzyl)piperazin-1-yl)-7-methyl-N-(oxetan-3-yl)pyrido[3,4-b]pyrazin-2-amine]: 21.9 nM; for `Cc1cc2nc(N3CCC(Oc4ccc(OC(F)F)cc4F)CC3)c(NC3CC3)nc2cn1` [Example 39, N-cyclopropyl-2-(4-(4-(difluoromethoxy)-2-fluorophenoxy)piperidin-1-yl)-7-methylpyrido[3,4-b]pyrazin-3-amine]: more than 5000 nM.
Compound `Cc1cc2nc(N3CCN(Cc4ccc(OC(F)F)cc4F)CC3)c(N[C@@H]3CCOC3)nc2cn1` [Example 48, (R)-2-(4-(4-(difluoromethoxy)-2-fluorobenzyl)piperazin-1-yl)-7-methyl-N-(tetrahydrofuran-3-yl)pyrido[3,4-b]pyrazin-3-amine] returned an EC50 of more than 1000 nM.
For `Cc1cc2nc(N[C@H]3C[C@H](O)C3)c(N3CCC(Oc4ccc(F)cc4F)CC3)nc2cn1` [Example 13, trans-3-((3-(4-(2,4-difluorophenoxy)piperidin-1-yl)-7-methylpyrido[3,4-b]pyrazin-2-yl)amino)cyclobutanol] the value was 48.2 nM.
The compound `Cc1cc2nc(NC3CC3)c(N3CCN(Cc4ccc(OC(F)F)cc4F)CC3)nc2cn1` [Example 27, N-cyclopropyl-3-(4-(4-(difluoromethoxy)-2-fluorobenzyl)piperazin-1-yl)-7-methylpyrido[3,4-b]pyrazin-2-amine] displayed an EC50 of 446 nM.
The same measure for `COc1ccc(CN2CCN(c3nc4cnc(C)cc4nc3NC3CC3)CC2)c(F)c1` [Example 23, N-cyclopropyl-3-(4-(2-fluoro-4-methoxybenzyl)piperazin-1-yl)-7-methylpyrido[3,4-b]pyrazin-2-amine]: 158 nM; for `Cc1cc2nc(N[C@H]3C[C@@H](O)C3)c(N3CCC(Oc4ccc(F)cc4F)CC3)nc2cn1` [Example 9, cis-3-((3-(4-(2,4-difluorophenoxy)piperidin-1-yl)-7-methylpyrido[3,4-b]pyrazin-2-yl)amino)cyclobutanol]: 52.3 nM; for `Cc1cc2nc(N3CCC(Oc4ccc(F)cc4F)CC3)c(N[C@H]3CCOC3)nc2cn1` [Example 37, (S)-2-(4-(2,4-difluorophenoxy)piperidin-1-yl)-7-methyl-N-(tetrahydrofuran-3-yl)pyrido[3,4-b]pyrazin-3-amine]: 128 nM.
The same measure for `Cc1cc2nc(N3CCN(Cc4ccc(F)cc4F)CC3)c(N[C@H]3CCOC3)nc2cn1` [Example 32, (S)-2-(4-(2,4-difluorobenzyl)piperazin-1-yl)-7-methyl-N-(tetrahydrofuran-3-yl)pyrido[3,4-b]pyrazin-3-amine]: 326 nM.
For `Cc1cc2nc(N3CCC(Oc4ccc(OC(F)F)cc4F)CC3)c(NC(C)C)nc2cn1` [Example 38, 2-(4-(4-(difluoromethoxy)-2-fluorophenoxy)piperidin-1-yl)-N-isopropyl-7-methylpyrido[3,4-b]pyrazin-3-amine] the value was 309 nM; for `Cc1cc2nc(N3CCN(Cc4ccc(F)cc4F)CC3)c(NC(C)C)nc2cn1` [Example 30, 2-(4-(2,4-difluorobenzyl)piperazin-1-yl)-N-isopropyl-7-methylpyrido[3,4-b]pyrazin-3-amine 2,2,2-trifluoroacetate], 80.1 nM; for `COc1ccc(CN2CCN(c3nc4cc(C)ncc4nc3N[C@H]3CCOC3)CC2)c(F)c1` [Example 45, (S)-2-(4-(2-fluoro-4-methoxybenzyl)piperazin-1-yl)-7-methyl-N-(tetrahydrofuran-3-yl)pyrido[3,4-b]pyrazin-3-amine], more than 1000 nM.
In turn, `Cc1cc2nc(N3CCC(Oc4ccc(OC(F)F)cc4F)CC3)c(N[C@@H]3CCOC3)nc2cn1` [Example 40, (R)-2-(4-(4-(difluoromethoxy)-2-fluorophenoxy)piperidin-1-yl)-7-methyl-N-(tetrahydrofuran-3-yl)pyrido[3,4-b]pyrazin-3-amine] registered an EC50 of more than 1000 nM.
For `Cc1cc2nc(N[C@@H]3CCOC3)c(N3CCC(Oc4ccc(F)cc4F)CC3)nc2cn1` [Example 5, (R)-3-(4-(2,4-difluorophenoxy)piperidin-1-yl)-7-methyl-N-(tetrahydrofuran-3-yl)pyrido[3,4-b]pyrazin-2-amine] the value was 30.1 nM.
For `Cc1cc2nc(NC(C)C)c(N3CCN(Cc4ccc(F)cc4F)CC3)nc2cn1` [Example 1, 3-(4-(2,4-difluorobenzyl)piperazin-1-yl)-N-isopropyl-7-methylpyrido[3,4-b]pyrazin-2-amine] the value was 59.4 nM.
For `Cc1cc2nc(N3CCC(Oc4ccc(F)cc4F)CC3)c(NC(C)C)nc2cn1` [Example 35, 2-(4-(2,4-difluorophenoxy)piperidin-1-yl)-N-isopropyl-7-methylpyrido[3,4-b]pyrazin-3-amine] the value was 66.4 nM.
As for `Cc1cc2nc(N3CCN(Cc4ccc(F)cc4F)CC3)c(NC3COC3)nc2cn1` [Example 50, 2-(4-(2,4-difluorobenzyl)piperazin-1-yl)-7-methyl-N-(oxetan-3-yl)pyrido[3,4-b]pyrazin-3-amine], it took 164 nM to reach a half-maximal effect (EC50).
In turn, `Cc1cc2nc(N3CCC(Oc4ccc(F)cc4F)CC3)c(NC3CC3)nc2cn1` [Example 34, N-cyclopropyl-2-(4-(2,4-difluorophenoxy)piperidin-1-yl)-7-methylpyrido[3,4-b]pyrazin-3-amine] had an EC50 of 94.9 nM.
Turning to `Cc1cc2nc(NC(C)C)c(N3CCN(Cc4ccc(OC(F)F)cc4F)CC3)nc2cn1` [Example 26, 3-(4-(4-(difluoromethoxy)-2-fluorobenzyl)piperazin-1-yl)-N-isopropyl-7-methylpyrido[3,4-b]pyrazin-2-amine], the concentration giving a half-maximal response (EC50) turned out to be 466 nM.
The same measure for `Cc1cc2nc(N[C@@H]3CCOC3)c(N3CCN(Cc4ccc(OC(F)F)cc4F)CC3)nc2cn1` [Example 28, (R)-3-(4-(4-(difluoromethoxy)-2-fluorobenzyl)piperazin-1-yl)-7-methyl-N-(tetrahydrofuran-3-yl)pyrido[3,4-b]pyrazin-2-amine]: more than 1000 nM; for `COc1ccc(CN2CCN(c3nc4cc(C)ncc4nc3N[C@@H]3CCOC3)CC2)c(F)c1` [Example 44, (R)-2-(4-(2-fluoro-4-methoxybenzyl)piperazin-1-yl)-7-methyl-N-(tetrahydrofuran-3-yl)pyrido[3,4-b]pyrazin-3-amine]: more than 1000 nM; for `COc1ccc(CN2CCN(c3nc4cc(C)ncc4nc3NC(C)C)CC2)c(F)c1` [Example 42, 2-(4-(2-fluoro-4-methoxybenzyl)piperazin-1-yl)-N-isopropyl-7-methylpyrido[3,4-b]pyrazin-3-amine]: 276 nM.
